According to ChEMBL document CHEMBL1147461, “Exploration of the P2-P3 SAR of aldehyde cathepsin K inhibitors” (Bioorg Med Chem Lett, 2004):

Columns and labels:
Cathepsin K = target: T1, Cathepsin K (Homo sapiens, UniProt P43235); assay: Inhibitory concentration against recombinant human cathepsin K determined in a fluorescence assay using 10 uM Cbz-Phe-Arg-AMC as substrate
T1 sequence (P43235 whole entry): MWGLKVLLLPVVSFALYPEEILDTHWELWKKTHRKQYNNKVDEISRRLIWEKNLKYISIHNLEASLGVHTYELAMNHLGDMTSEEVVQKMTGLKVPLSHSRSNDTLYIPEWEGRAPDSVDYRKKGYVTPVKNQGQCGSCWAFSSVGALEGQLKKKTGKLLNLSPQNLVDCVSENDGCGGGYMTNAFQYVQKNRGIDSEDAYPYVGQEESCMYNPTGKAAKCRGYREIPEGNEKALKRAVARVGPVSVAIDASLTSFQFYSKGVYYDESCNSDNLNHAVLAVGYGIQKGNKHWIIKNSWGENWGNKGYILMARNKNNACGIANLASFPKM

Cathepsin B = Cathepsin B (Homo sapiens, UniProt P07858); assay: Inhibitory concentration against recombinant human cathepsin B was determined in a fluorescence assay using 10 uM Cbz-Phe-Arg-AMC as substrate
Procathepsin L = Procathepsin L (Homo sapiens, UniProt P07711); assay: Inhibitory concentration against recombinant human cathepsin L was determined in a fluorescence assay using 5 uM Cbz-Phe-Arg-AMC as substrate
Procathepsin L, sequence (P07711 whole entry): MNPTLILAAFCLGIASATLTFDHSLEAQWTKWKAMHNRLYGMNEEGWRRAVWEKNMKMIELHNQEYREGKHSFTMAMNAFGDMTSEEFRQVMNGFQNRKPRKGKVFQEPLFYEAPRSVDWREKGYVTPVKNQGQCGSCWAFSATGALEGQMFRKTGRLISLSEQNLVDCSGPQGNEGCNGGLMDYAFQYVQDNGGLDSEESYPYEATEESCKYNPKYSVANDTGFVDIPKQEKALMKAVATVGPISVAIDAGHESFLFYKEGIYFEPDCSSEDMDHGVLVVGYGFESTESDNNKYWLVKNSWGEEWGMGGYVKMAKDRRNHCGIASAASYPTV

Compound | IC50 (Cathepsin K) | IC50 (Cathepsin B) | IC50 (Procathepsin L)
CCCC[C@@H](C=O)NC(=O)OC(Cc1ccccc1)Cc1ccccc1 | 71 nM |  | 
CCCC[C@@H](C=O)NC(=O)OC(CC(C)C)CC(C)C | 1.1 nM |  | 
CCCC[C@@H](C=O)NC(=O)O[C@@H](C)CC1CCCCC1 | 2.7 nM | 400 nM | 270 nM
CCCC[C@@H](C=O)NC(=O)OC1(Cc2ccccc2)CCCCC1 | 2 nM | 12000 nM | 8500 nM
CCCC[C@@H](C=O)NC(=O)OC(C)(C)Cc1ccc(Cl)cc1 | 4.6 nM |  | 
CCCC[C@@H](C=O)NC(=O)OC(C)(C)Cc1cccc(OC)c1 | 5.4 nM |  | 
CCCC[C@@H](C=O)NC(=O)OC(C)(C(C)C)C(C)C | 4.7 nM |  | 
CCCC[C@@H](C=O)NC(=O)OC(C(C)C)C(C)C | 0.56 nM |  | 
CCCC[C@@H](C=O)NC(=O)OC(C)(C)Cc1ccc(OC)cc1 | 2.9 nM |  | 
CCCC[C@@H](C=O)NC(=O)OC(C)(C)Cc1ccccc1Cl | 3.1 nM |  | 
CCCC[C@@H](C=O)NC(=O)OC(CC)CC | 4 nM |  | 
CCCC[C@@H](C=O)NC(=O)OC(CCC)CCC | 0.87 nM |  | 
CCCC[C@@H](C=O)NC(=O)OC(C)(C)Cc1cccc(-c2ccsc2)c1 | 7.6 nM |  | 

The remaining lines, values ahead:

IC50 (Cathepsin K) | IC50 (Cathepsin B) | IC50 (Procathepsin L) | Compound
1.8 nM | 460 nM | 740 nM | CCCC[C@@H](C=O)NC(=O)O[C@@H](C)Cc1ccccc1
0.13 nM | 72 nM | 15 nM | CCCC[C@@H](C=O)NC(=O)O[C@@H](CC)Cc1ccccc1
1.5 nM |  |  | CCCC[C@@H](C=O)NC(=O)O[C@@H](CCC)Cc1ccccc1
6.5 nM |  |  | CCCC[C@@H](C=O)NC(=O)O[C@H](Cc1ccccc1)CC(C)C
270 nM |  |  | CCCC[C@@H](C=O)NC(=O)OCCc1ccccc1
2.4 nM | 3400 nM | 1200 nM | CCCC[C@@H](C=O)NC(=O)OC1(Cc2ccccc2)CCC1
2.1 nM | 2200 nM | 110 nM | CCCC[C@@H](C=O)NC(=O)OC(CC)(CC)Cc1ccccc1
540 nM |  |  | CCCC[C@@H](C=O)NC(=O)OCc1ccccc1
12 nM |  |  | CCCC[C@@H](C=O)NC(=O)OC(C)(C)Cc1ccccc1
 | 810 nM | 2000 nM | CCCC[C@@H](C=O)NC(=O)OC1(Cc2ccccc2)CCCC1
100 nM |  |  | CCCC[C@@H](C=O)NC(=O)O[C@H](C)Cc1ccccc1
600 nM |  |  | CCCC[C@@H](C=O)NC(=O)OCCCc1ccccc1
